Test results reported in patent US7964607B2, “Pyrazolo[3,4-d]pyrimidine compounds” (Pfizer Inc., priority 2007, dated 2011).

What follows are compounds tested against T1, human recombinant PDE9 enzyme (Homo sapiens, UniProt O76083) (assay: Phosphodiesterase 9 (PDE9) inhibitory activity, Scintillation Proximity (SPA) assay). Conditions: not given.
T1 construct: made in house; host or cells: SF-9 insect cells
Assay type: biochemical
Outline: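 Recombinant human PDE9 from SF-9 cell lysate supernatant, diluted so that ≤20% of [3H]cGMP substrate was hydrolysed to 5′GMP. Reaction started with enzyme and run 30 min at room temperature with 2% DMSO final. SPA beads were counted after >300 min; background came from a high concentration of a PDE inhibitor.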

T1 sequence (O76083 whole entry): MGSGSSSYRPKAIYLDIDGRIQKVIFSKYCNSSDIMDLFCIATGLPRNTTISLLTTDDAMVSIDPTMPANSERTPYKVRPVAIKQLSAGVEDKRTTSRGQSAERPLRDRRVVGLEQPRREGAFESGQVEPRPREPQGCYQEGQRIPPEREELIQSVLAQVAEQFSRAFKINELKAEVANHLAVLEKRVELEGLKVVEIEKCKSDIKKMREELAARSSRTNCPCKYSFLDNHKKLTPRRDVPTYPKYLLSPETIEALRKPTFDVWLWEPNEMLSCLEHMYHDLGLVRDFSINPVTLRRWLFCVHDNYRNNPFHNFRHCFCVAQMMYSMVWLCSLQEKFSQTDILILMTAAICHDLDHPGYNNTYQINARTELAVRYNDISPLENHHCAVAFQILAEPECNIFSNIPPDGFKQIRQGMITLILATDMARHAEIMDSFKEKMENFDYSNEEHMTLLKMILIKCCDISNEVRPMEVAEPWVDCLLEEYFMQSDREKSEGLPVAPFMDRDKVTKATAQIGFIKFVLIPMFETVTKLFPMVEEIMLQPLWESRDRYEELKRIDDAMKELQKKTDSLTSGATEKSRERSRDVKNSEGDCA

| SMILES | IC50 [nM] |
| --- | --- |
| Cc1ccc(CN2C[C@@H](C)[C@H](c3nc4c(cnn4C4CCOCC4)c(=O)[nH]3)C2)cn1 [Example 79, 6-{(3S,4S)-4-methyl-1-[(6-methylpyridin-3-yl)methyl]pyrrolidin-3-yl}-1-(tetrahydro-2H-pyran-4-yl)-1,5-dihydro-4H-pyrazolo[3,4-d]pyrimidin-4-one] | 3.72 |
| C[C@@H]1CN(Cc2cccc(F)c2)C[C@H]1c1nc2c(cnn2C2CCOCC2)c(=O)[nH]1 [Example 89, 6-[(3S,4S)-1-(3-fluorobenzyl)-4-methylpyrrolidin-3-yl]-1-(tetrahydro-2H-pyran-4-yl)-1,5-dihydro-4H-pyrazolo[3,4-d]pyrimidin-4-one] | 1.7 |
| C[C@@H]1CN(Cc2ccc(F)cc2)C[C@H]1c1nc2c(cnn2C2CCOCC2)c(=O)[nH]1 [Example 96, 6-[(3S,4S)-1-(4-fluorobenzyl)-4-methylpyrrolidin-3-yl]-1-(tetrahydro-2H-pyran-4-yl)-1,5-dihydro-4H-pyrazolo[3,4-d]pyrimidin-4-one] | 7.13 |
| C[C@@H]1CN(Cc2ccccc2F)C[C@H]1c1nc2c(cnn2C2CCOCC2)c(=O)[nH]1 [Example 98, 6-[(3S,4S)-1-(2-fluorobenzyl)-4-methylpyrrolidin-3-yl]-1-(tetrahydro-2H-pyran-4-yl)-1,5-dihydro-4H-pyrazolo[3,4-d]pyrimidin-4-one] | 7.93 |
| COc1ccc(CN2C[C@@H](C)[C@H](c3nc4c(cnn4C4CCOCC4)c(=O)[nH]3)C2)cc1 [Example 101, 6-[(3S,4S)-1-(4-methoxybenzyl)-4-methylpyrrolidin-3-yl]-1-(tetrahydro-2H-pyran-4-yl)-1,5-dihydro-4H-pyrazolo[3,4-d]pyrimidin-4-one] | 7.94 |

Same assay, conditions: human recombinant PDE9 from SF-9 cells; 50 nM [3H]cGMP; room temperature, 30 min; Examples 3-114; read-out: G5678A (U): IC50

| SMILES | IC50 [nM] |
| --- | --- |
| C[C@@H]1CN(Cc2ccc(C(F)(F)F)nc2)C[C@H]1c1nc2c(cnn2C2CCOCC2)c(=O)[nH]1 [Example 80, 6-[(3S,4S)-4-methyl-1-{[6-(trifluoromethyl)pyridin-3-yl]methyl}pyrrolidin-3-yl]-1-(tetrahydro-2H-pyran-4-yl)-1,5-dihydro-4H-pyrazolo[3,4-d]pyrimidin-4-one] | 3.72 |
| C[C@@H]1CN(Cc2nc3cnccc3n2C)C[C@H]1c1nc2c(cnn2C2CCOCC2)c(=O)[nH]1 [Example 81, 6-{(3S,4S)-4-methyl-1-[(1-methyl-1H-imidazo[4,5-c]pyridin-2-yl)methyl]pyrrolidin-3-yl}-1-(tetrahydro-2H-pyran-4-yl)-1,5-dihydro-4H-pyrazolo[3,4-d]pyrimidin-4-one] | 2.92 |
| Cc1cc(CN2C[C@@H](C)[C@H](c3nc4c(cnn4C4CCOCC4)c(=O)[nH]3)C2)n(C)n1 [Example 82, 6-{(3S,4S)-1-[(1,3-dimethyl-1H-pyrazolo-5-yl)methyl]-4-methylpyrrolidin-3-yl}-1-(tetrahydro-2H-pyran-4-yl)-1,5-dihydro-4H-pyrazolo[3,4-d]pyrimidin-4-one] | 5.18 |
| C[C@@H]1CN(Cc2ccc3nsnc3c2)C[C@H]1c1nc2c(cnn2C2CCOCC2)c(=O)[nH]1 [Example 84, 6-[(3S,4S)-1-(2,1,3-benzothiadiazol-5-ylmethyl)-4-methylpyrrolidin-3-yl]-1-(tetrahydro-2H-pyran-4-yl)-1,5-dihydro-4H-pyrazolo[3,4-d]pyrimidin-4-one] | 1.87 |
| C[C@@H]1CN(Cc2cnc3ccccc3n2)C[C@H]1c1nc2c(cnn2C2CCOCC2)c(=O)[nH]1 [Example 85] | 0.903 |
| C[C@@H]1CN(Cc2ccnc3ccccc23)C[C@H]1c1nc2c(cnn2C2CCOCC2)c(=O)[nH]1 [Example 86, 6-[(3S,4S)-4-methyl-1-(quinolin-4-ylmethyl)pyrrolidin-3-yl]-1-(tetrahydro-2H-pyran-4-yl)-1,5-dihydro-4H-pyrazolo[3,4-d]pyrimidin-4-one] | 1.44 |
| Cc1nn(C2CCOCC2)c2nc([C@@H]3CN(Cc4ccccc4)C[C@H]3C)[nH]c(=O)c12 [Example 88, 6-[(3S,4S)-1-benzyl-4-methylpyrrolidin-3-yl]-3-methyl-1-(tetrahydro-2H-pyran-4-yl)-1,5-dihydro-4H-pyrazolo[3,4-d]pyrimidin-4-one] | 17.9 |
| C[C@@H]1CN(Cc2cc(F)cc(F)c2)C[C@H]1c1nc2c(cnn2C2CCOCC2)c(=O)[nH]1 [Example 90, 6-[(3S,4S)-1-(3,5-difluorobenzyl)-4-methylpyrrolidin-3-yl]-1-(tetrahydro-2H-pyran-4-yl)-1,5-dihydro-4H-pyrazolo[3,4-d]pyrimidin-4-one] | 1.41 |
| C[C@@H]1CN(Cc2ccc(C(F)(F)F)cc2)C[C@H]1c1nc2c(cnn2C2CCOCC2)c(=O)[nH]1 [Example 91, 6-{(3S,4S)-4-methyl-1-[4-(trifluoromethyl)benzyl]pyrrolidin-3-yl}-1-(tetrahydro-2H-pyran-4-yl)-1,5-dihydro-4H-pyrazolo[3,4-d]pyrimidin-4-one] | 6.69 |
| Cc1nn(C2CCOCC2)c2nc([C@@H]3CN(Cc4cccnc4)C[C@H]3C)[nH]c(=O)c12 [Example 92, 3-methyl-6-[(3S,4S)-4-methyl-1-(pyridin-3-ylmethyl)pyrrolidin-3-yl]-1-(tetrahydro-2H-pyran-4-yl)-1,5-dihydro-4H-pyrazolo[3,4-d]pyrimidin-4-one] | 23.3 |
| Cc1ncc(CN2C[C@@H](C)[C@H](c3nc4c(c(C)nn4C4CCOCC4)c(=O)[nH]3)C2)cn1 [Example 93, 3-methyl-6-{(3S,4S)-4-methyl-1-[(2-methylpyrimidin-5-yl)methyl]pyrrolidin-3-yl}-1-(tetrahydro-2H-pyran-4-yl)-1,5-dihydro-4H-pyrazolo[3,4-d]pyrimidin-4-one] | 24.3 |
| COc1ccc(CN2C[C@@H](C)[C@H](c3nc4c(c(C)nn4C4CCOCC4)c(=O)[nH]3)C2)cn1 [Example 94, 6-{(3S,4S)-1-[(6-methoxypyridin-3yl)methyl]-4-methylpyrrolidin-3-yl}-3methyl-1-(tetrahyrdro-2H-pyran-4-yl)-1,5-dihydro-4H-pyrazolo[3,4-d]pyrimidin-4-one] | 14.2 |
| Cc1cccc(CN2C[C@@H](C)[C@H](c3nc4c(cnn4C4CCOCC4)c(=O)[nH]3)C2)n1 [Example 95, 6-{(3S,4S)-4-methyl-1-[(6-methylpyridin-2-yl)methyl]pyrrolidin-3-yl}-1-(tetrahydro-2H-pyran-4-yl)-1,5-dihydro-4H-pyrazolo[3,4-d]pyrimidin-4-one] | 3.92 |
| C[C@@H]1CN(Cc2ccccc2C(F)(F)F)C[C@H]1c1nc2c(cnn2C2CCOCC2)c(=O)[nH]1 [Example 99, 6-{(3S,4S)-4-methyl-1-[2-(trifluoromethyl)benzyl]pyrrolidin-3-yl}-1-(tetrahydro-2H-pyran-4-yl)-1,5-dihydro-4H-pyrazolo[3,4-d]pyrimidin-4-one] | 12.8 |
| C[C@@H]1CN(Cc2ccc(F)cc2F)C[C@H]1c1nc2c(cnn2C2CCOCC2)c(=O)[nH]1 [Example 100, 6-[(3S,4S)-1-(2,4-difluorobenzyl)-4-methylpyrrolidin-3-yl]-1-(tetrahydro-2H-pyran-4-yl)-1,5-dihydro-4H-pyrazolo[3,4-d]pyrimidin-4-one] | 22.7 |
| C[C@@H]1CN(Cc2ccccc2)C[C@H]1c1nc2c(cnn2C2CCSCC2)c(=O)[nH]1 [Example 102, 6-[(3S,4S)-1-benzyl-4-methylpyrrolidin-3-yl]-1-(tetrahydro-2H-thiopyran-4-yl)-1,5-dihydro-4H-pyrazolo[3,4-d]pyrimidin-4-one] | 19.7 |
| COc1ccccc1CN1C[C@@H](C)[C@H](c2nc3c(cnn3C3CCOCC3)c(=O)[nH]2)C1 [Example 103, 6-[(3S,4S)-1-(2-methoxybenzyl)-4-methylpyrrolidin-3-yl]-1-(tetrahydro-2H-pyran-4-yl)-1,5-dihydro-4H-pyrazolo[3,4-d]pyrimidin-4-one] | 15.2 |
| COc1cccc(CN2C[C@@H](C)[C@H](c3nc4c(cnn4C4CCOCC4)c(=O)[nH]3)C2)c1 [Example 104, 6-[(3S,4S)-1-(3-methoxybenzyl)-4-methylpyrrolidin-3-yl]-1-(tetrahydro-2H-pyran-4-yl)-1,5-dihydro-4H-pyrazolo[3,4-d]pyrimidin-4-one] | 3.98 |
| C[C@@H]1CN(Cc2cccc(C(F)(F)F)c2)C[C@H]1c1nc2c(cnn2C2CCOCC2)c(=O)[nH]1 [Example 105, 6-{(3S,4S)-4-methyl-1-[3-(trifluoromethyl)benzyl]pyrrolidin-3-yl}-1-(tetrahydro-2H-pyran-4-yl)-1,5-dihydro-4H-pyrazolo[3,4-d]pyrimidin-4-one] | 3.29 |
| C[C@@H]1CN(Cc2c(F)cccc2F)C[C@H]1c1nc2c(cnn2C2CCOCC2)c(=O)[nH]1 [Example 106, 6-[(3S,4S)-1-(26-difluorobenzyl)-4-methylpyrrolidin-3-yl]-1-(tetrahydro-2H-pyran-4-yl)-1,5-dihydro-4H-pyrazolo[3,4-d]pyrimidin-4-one] | 8.06 |
| CC[C@@H]1CN(Cc2cnc(C)cn2)C[C@H]1c1nc2c(cnn2C2CCOCC2)c(=O)[nH]1 [Example 107, 6-{(3S,4S)-4-ethyl-1-[(5-methylpyrazin-2-yl)methyl]pyrrolidin-3-yl}-1-(tetrahydro-2H-pyran-4-yl)-1,5-dihydro-4H-pyrazolo[3,4-d]pyrimidin-4-one] | 4.33 |
| CC[C@@H]1CN(Cc2ccc(OC)nc2)C[C@H]1c1nc2c(cnn2C2CCOCC2)c(=O)[nH]1 [Example 108, 6-{(3S,4S)-4-ethyl-1-[(6-methoxypyridin-3-yl)methyl]pyrrolidin-3-yl}-1-(tetrahydro-2H-pyran-4-yl)-1,5-dihydro-4H-pyrazolo[3,4-d]pyrimidin-4-one] | 3.11 |
| CC[C@@H]1CN(Cc2ccccn2)C[C@H]1c1nc2c(cnn2C2CCOCC2)c(=O)[nH]1 [Example 109, 6-[(3S,4S)-4-ethyl-1-(pyridin-2-ylmethyl)pyrrolidin-3-yl]-1-(tetrahydro-2H-pyran-4-yl)-1,5-dihydro-4H-pyrazolo[3,4-d]pyrimidin-4-one] | 4.21 |
